Measured values reported in patent US20260216197A1, “WRN HELICASE INHIBITOR” (SUZHOU PUHE BIOPHARMA CO., LTD., priority 2022, published 2026).

Assays:
[1] = system: MSI-H colorectal cancer SW48 cell line; assay: 2D anti-proliferative activity, MSI-H SW48 cells (CTG, 5 days); assay type: cell-based
Method in brief: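 SW48 cells in RPMI 1640/10% FBS were exposed to serially varied compound concentrations for 5 days at 37 °C, 5% CO2. Viability was read as ATP-dependent CellTiter-Glo luminescence after 30 min.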

[2] = Pharmacokinetic evaluation in mice; assay type: in vivo, CD1 female mice
Method: CD1 female mice were used as test animals and the drug was administered orally/intravenously (oral dosage: 10 mg/kg, intravenous dosage: 2 mg/kg).
Assay protocol: The oral group consisted of 3 mice per group (vehicle: 10% Hβ-CD-pH7.4), and the intravenous group consisted of 3 mice per group. […] The blood concentrations in plasma after oral and intravenous administration of mice were determined by LC/MS/MS, respectively.

[3] = system: MSS colorectal cancer HT-29 cell line; assay: 2D anti-proliferative activity, MSS HT-29 cells (CTG, 5 days); assay type: cell-based
Method in brief: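 HT-29 cells in McCoy's 5A with 10% FBS exposed to compound for 5 days at 37° C, 5% CO2 in 384-well format. Viable cells read as ATP luminescence (CellTiter-Glo) after 30 min.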

[4] = system: SW 48 (MSI-H) colorectal cancer cells; assay: In vivo pharmacodynamic assay, SW48 xenograft in nude mice; design: species or system BALB/c nude mice; settings: 120 mg/kg, QD, oral
Method: In vivo pharmacodynamic assay in BALB/c nude mice. Details are as follows:
SW 48 (MSI-H) colorectal cancer cells were cultured (L15 medium with 10% fetal bovine serum), and then inoculated into 6-8-week old female BALB/c nude mice (weighing about 20 g), wherein all mice were inoculated subcutaneously. The mice were cultured in an SPF-grade experimental environment, and all mice had free access to commercially certified standard diets. When the average tumor volume of the mice grew to about 150 mm^3, the test compound was orally administered daily. The dosage was as follows: blank group vehicle (10% HP-β-CD aqueous solution, pH-7). The dosage of the administration group was 120 mg/kg, 50 mg/kg, or 20 mg/kg, once a day. The tumor volume was measured with a two-dimensional caliper three times a week, and the animals were weighed every day. […] The tumor volume was calculated using the formula: V=½a*b^2, where a represents the long diameter of the tumor, and b represents the short diameter of the tumor.

[5] = Liver microsome stability test; assay type: in vitro ADME; settings: human liver microsomes 0.5 mg/mL, compound 1 μM, NADPH 1 mM, 60 minutes
WRN helicase = WRN helicase (Homo sapiens, UniProt Q14191); assay: WRN helicase hydrolysis/unwinding of double-stranded DNA (fluorescence); assay type: biochemical
Sequence of WRN helicase (Q14191 whole entry): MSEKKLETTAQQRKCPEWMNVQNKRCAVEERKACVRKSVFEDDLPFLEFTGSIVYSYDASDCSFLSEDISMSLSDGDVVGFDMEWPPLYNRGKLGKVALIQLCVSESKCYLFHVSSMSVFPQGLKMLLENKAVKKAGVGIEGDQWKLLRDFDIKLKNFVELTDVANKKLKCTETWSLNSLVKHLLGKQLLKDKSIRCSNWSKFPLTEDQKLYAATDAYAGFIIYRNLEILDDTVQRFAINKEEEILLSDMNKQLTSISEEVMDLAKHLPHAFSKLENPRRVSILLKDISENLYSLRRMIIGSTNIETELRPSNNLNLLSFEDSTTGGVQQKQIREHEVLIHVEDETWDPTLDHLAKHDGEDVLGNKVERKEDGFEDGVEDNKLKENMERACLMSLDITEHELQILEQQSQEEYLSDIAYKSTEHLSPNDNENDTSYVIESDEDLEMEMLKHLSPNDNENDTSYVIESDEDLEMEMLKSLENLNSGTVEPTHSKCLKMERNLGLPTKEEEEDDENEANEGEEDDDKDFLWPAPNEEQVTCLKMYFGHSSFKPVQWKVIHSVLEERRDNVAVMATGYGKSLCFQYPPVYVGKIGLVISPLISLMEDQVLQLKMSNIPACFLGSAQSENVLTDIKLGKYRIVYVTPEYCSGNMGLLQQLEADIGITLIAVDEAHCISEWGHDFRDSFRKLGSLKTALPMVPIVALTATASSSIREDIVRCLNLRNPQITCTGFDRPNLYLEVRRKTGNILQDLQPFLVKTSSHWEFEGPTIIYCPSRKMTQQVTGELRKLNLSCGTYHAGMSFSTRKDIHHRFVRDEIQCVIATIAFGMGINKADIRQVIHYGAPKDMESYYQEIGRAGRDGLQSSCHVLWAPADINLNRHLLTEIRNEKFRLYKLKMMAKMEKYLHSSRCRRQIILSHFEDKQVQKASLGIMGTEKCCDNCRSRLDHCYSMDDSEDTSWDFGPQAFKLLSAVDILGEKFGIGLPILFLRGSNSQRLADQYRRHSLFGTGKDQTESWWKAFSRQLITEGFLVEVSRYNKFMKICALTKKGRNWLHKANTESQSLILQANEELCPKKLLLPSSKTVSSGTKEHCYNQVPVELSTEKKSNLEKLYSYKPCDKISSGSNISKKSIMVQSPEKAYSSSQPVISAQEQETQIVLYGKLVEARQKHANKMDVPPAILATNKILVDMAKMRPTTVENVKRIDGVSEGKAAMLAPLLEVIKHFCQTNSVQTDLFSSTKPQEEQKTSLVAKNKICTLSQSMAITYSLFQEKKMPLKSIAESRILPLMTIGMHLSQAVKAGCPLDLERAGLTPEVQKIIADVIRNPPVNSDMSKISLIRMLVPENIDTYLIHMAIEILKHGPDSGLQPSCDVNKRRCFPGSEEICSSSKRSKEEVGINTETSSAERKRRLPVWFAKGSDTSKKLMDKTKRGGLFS
Method in brief: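 Human WRN helicase preincubated 30 min in the dark with compound (top final concentration 10 μM, 4-fold dilutions). Reaction started with 19-bp double-stranded DNA labelled 3′-TAMRA/5′-BHQ2, run 60 min at room temperature; IC50 from fluorescence change (Ex530/Em590) versus DMSO blank.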

## CCc1c(N2CCN(C(=O)c3ncnc(C)c3O)CC2)c(=O)n2nc(C3=CCOCC3)nc2n1CC(=O)Nc1ccc(C(F)(F)F)c2ccsc12 [Compound H1]
[1]; 0.038146973 nM
  Average value/ Inhibition rate: −7.8792
  Test 1/ Inhibition rate: −7.3699
  Test 2/ Inhibition rate: −8.3885
[1]; 0.152587891 nM
  Average value/ Inhibition rate: −7.2326
  Test 1/ Inhibition rate: −8.9847
  Test 2/ Inhibition rate: −5.4804
[1]; 0.610351563 nM
  Average value/ Inhibition rate: −7.2423
  Test 1/ Inhibition rate: −8.9821
  Test 2/ Inhibition rate: −5.5025
[1]; 2.44140625 nM
  Average value/ Inhibition rate: −1.2893
  Test 1/ Inhibition rate: −5.0894
  Test 2/ Inhibition rate: 2.5108
[1]; 9.765625 nM
  Average value/ Inhibition rate: −9.8115
  Test 1/ Inhibition rate: −9.6799
  Test 2/ Inhibition rate: −9.9432
[1]; 39 nM
  inhibitory activity on SW48 cells: high inhibitory activity
[1]; 39.0625 nM
  Average value/ Inhibition rate: 12.6131
  Test 1/ Inhibition rate: 9.3323
  Test 2/ Inhibition rate: 15.8938
[1]; 156.25 nM
  Average value/ Inhibition rate: 98.3044
  Test 1/ Inhibition rate: 98.4846
  Test 2/ Inhibition rate: 98.1243
[1]; 625 nM
  Average value/ Inhibition rate: 98.5020
  Test 1/ Inhibition rate: 98.3268
  Test 2/ Inhibition rate: 98.6771
[1]; 2500 nM
  Average value/ Inhibition rate: 99.9213
  Test 1/ Inhibition rate: 99.6262
  Test 2/ Inhibition rate: 100.2164
[1]; 10000 nM
  Average value/ Inhibition rate: 100.6963
  Test 1/ Inhibition rate: 100.7430
  Test 2/ Inhibition rate: 100.6495
[1]; 5 days
  IC50: 55 nM
[2]
  in vivo exposure compared with reference molecule A1: higher in vivo exposure
[2]; IV 2 mg/kg
  AUC0-24: 1421 ng·h/mL
  C0: 3299 ng/mL
  Cl: 23.4 mL/min/kg
  T1/2: 1.6 h
[2]; PO 10 mg/kg
  AUC0-24: 5599 ng·h/mL
  Cmax: 4645 ng/mL
  T1/2: 1.2 h
  Tmax: 0.5 h
[2]; PO 10 mg/kg vs IV 2 mg/kg
  F: 79%
[3]
  IC50: > 10000 nM
[4]
  TGI: 105%
[4]; day 1
  Tumor volume (mm^3)-D 1: 171 mm^3
[4]; day 21
  Tumor volume (mm^3)-D 21: 28 mm^3
[5]
  Human Clint μL/min/mg Protein: 14.8 μL/min/mg Protein
  Human Clint/(mL/min/kg): 18.5 mL/min/kg
WRN helicase
  IC50: 1.5 nM
